Test results published in US20030166651A1, “Novel 3-substituted 1,2,4-benzotriazines, a method for their production and the use thereof” (priority 1999, published 2003).
In brackets after ≈: the same amount, converted by molar mass.

Columns and labels:
Type in all cases: cell-based
HeLa = assay: Inhibition of cell growth, HeLa cells; conditions: three days at 37° C., microscope assessment; for IC50: Homo sapiens, 72 h, read-out: IC50 value (50% inhibition of cell growth)
Experimental: (§1) Aqueous sterile solutions of each substance to be tested are injected into 1 ml of the respective cell stock solution at concentration steps of 2-50 μg each time. Subsequently, the test chambers are developed together with a non-treated reference chamber for three days at 37° C. Assessment is performed using a microscope. Cell growth or cell decomposition (condition of cell membrane and cell nucleus) is compared to non-treated reference cells.

Pleural carcinoma = assay: Inhibition of cell growth, pleural carcinoma cells; conditions: 72 h, three days at 37° C., microscope assessment, read-out: IC50 value (50% inhibition of cell growth)
Experimental: as §1

Peritoneal carcinoma = assay: Inhibition of cell growth, peritoneal carcinoma cells; conditions: 72 h, three days at 37° C., microscope assessment, read-out: IC50 value (50% inhibition of cell growth)
Experimental: as §1

Hep2 = assay: Inhibition of cell growth, Hep2 cells; conditions: three days at 37° C., microscope assessment; for IC50: Homo sapiens, HEp-2, 72 h, read-out: IC50 value (50% inhibition of cell growth)
Experimental: as §1

[1] = system: permanent cell cultures such as HeLa, Hep2 cells, of peritoneal carcinoma and pleural carcinoma cells; assay: Inhibition of cell growth, overall statement on the tumor cell cultures
Experimental: as §1

Row | Molecule | IC50 value (50% inhibition of cell growth) (HeLa) [µg/mL] | IC50 (Pleural carcinoma) [µg/mL] | IC50 (Peritoneal carcinoma) [µg/mL] | IC50 (HeLa) [µg/mL] | IC50 (Hep2) [µg/mL] | inhibition of cell growth / antitumor activity, result in words [1] | IC50 value (50% inhibition of cell growth) (Hep2) [µg/mL]
1 | 3-(D-galacto-tetritol-1-yl)-1,2,4-benzotriazine [Compound i] | 400 |  |  |  |  |  | 
2 | COC(=O)Cc1nnc2ccc(Cl)cc2n1 [Compound b, 3-(methoxycarbonylmethyl)-6-chlorobenzo-1,2,4-triazine] |  | 500 (≈ 2100 µM) | 150 (≈ 631 µM) | 160 (≈ 673 µM) | 120 (≈ 505 µM) |  | 
3 | COC(=O)Cc1nnc2cccc(Cl)c2n1 [Compound c, 3-(methoxycarbonylmethyl)-5-chlorobenzo-1,2,4-triazine] |  |  | 12 (≈ 50.5 µM) | 8 to 16 (≈ 33.7 to 67.3 µM) | 16 (≈ 67.3 µM) | preferred activity | 
4 | COC(=O)Cc1nnc2ccc(Cl)c(N)c2n1 [Compound d, 3-(methoxycarbonylmethyl)-5-amino-6-chlorobenzo-1,2,4-triazine] |  | 500 (≈ 1980 µM) | 25 to 30 (≈ 98.9 to 119 µM) | 50 (≈ 198 µM) | 500 (≈ 1980 µM) |  | 
5 | CCOC(=O)Cc1nnc2ccc(Br)cc2n1 [Compound g, 3-(ethoxycarbonylmethyl)-6-bromobenzo-1,2,4-triazine] |  |  | 35 (≈ 118 µM) | 8 to 16 (≈ 27 to 54 µM) | 8 to 16 (≈ 27 to 54 µM) | preferred activity | 
6 | OC[C@@H](O)[C@@H](O)[C@H](O)c1nnc2ccccc2n1 [Compound h, 3-(D-arabino-tetritol-1-yl)-1,2,4-benzotriazine] | 150 |  |  |  |  |  | 150
7 | OC[C@@H](O)[C@@H](O)[C@H](O)c1nnc2ccc(Cl)cc2n1 [Compound k, 3-(D-arabino-tetritol-1-yl)-6-chlorobenzo-1,2,4-triazine] | 250 |  |  |  |  |  | 
8 | CC(C)NC(=O)Cc1nnc2ccccc2n1 [Compound l, 3-(isopropylaminocarbonylmethyl)-1,2,4-benzotriazine] |  |  |  |  |  | preferred activity | 
